Laboratory results as given in US20240287070A1, “FUSED HETEROCYCLIC DERIVATIVES” (Janssen Sciences Ireland Unlimited Company, priority 2021, published 2024).

Legend:
[1] = Human liver microsome stability; assay type: in vitro ADME; conditions: 1 μM compound, NADPH 1 mM, 37° C., 0-60 min; for HLM Metabolism t1/2: pooled human liver microsomes 0.5 mg/mL; for half-life at 1 μM: human, pooled human liver microsomes, pH 7.4, pooled human liver microsomes 0.5 mg/mL, read-out: HLM Metabolism t1/2
Summary of the method: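 Single incubations with human liver microsomes started with 1 mM NADPH; samples taken at 0, 5, 10, 20, 40 and 60 min, quenched in acetonitrile (1:3). Cassette LC-MS analysis with internal standard; t½ derived from slope of ln peak-area ratio versus time (k = −gradient).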

[2] = system: HBV (HepG2.117 cell line, inducibly HBV producing); assay: Anti-HBV activity, intracellular HBV DNA by real-time PCR in HepG2.117 cell line; assay type: cell-based, hepatitis B virus; conditions: HepG2.117 cells, 3 days of treatment
Summary of the method: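 HepG2.117 cells replicate HBV under Tet-off control, without doxycycline. After induction of replication, cells were treated with serially diluted compound for 3 days, and intracellular HBV DNA was then quantified by real-time PCR with an HBV-specific primer set and probe.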

HepG2 or HepG2.117 cells = assay: Cytotoxicity, ATPlite Luminescence Assay; assay type: cell-based, human; conditions: 3-days incubation unless marked with *
Summary of the method: (§1)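 Viability after compound treatment is read as ATP luminescence. Exposure lasts 3 or 4 days.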

[3] = Cytotoxicity, ATPlite Luminescence Assay; assay type: cell-based, human; conditions: human, HepG2 or HepG2.117 cells, 3-days incubation unless marked with *
Summary of the method: as §1

[4] = Hepatitis B virus, HepG2.117, 72 h

Structure (SMILES) | HLM Metabolism t1/2 [1] [h] | EC50 [2] [µM] | CC50 (HepG2 or HepG2.117 cells) [µM] | half-life at 1 μM [1] [h] | EC50 [2, 4] [µM] | CC50 at 3 days [3] [µM]
CC(c1ccc(-n2cncn2)nc1)N1C[C@@H](C)n2nc3c(c2C1=O)CN(C(=O)c1ccc(Cl)c(Cl)c1)[C@H](C)C3 (single isomer, unassigned) [Compound 5B, (3R,7R)-9-((S*)-1-(6-(1H-1,2,4-triazol-1-yl)pyridin-3-yl)ethyl)-2-(3,4-dichlorobenzoyl)-3,7-dimethyl-1,2,3,4,8,9-hexahydropyrido[4′,3′:3,4]pyrazolo[1,5-a]pyrazin-10(7H)-one] | 2.08 | 0.017 | 28.4 |  |  | 
CC(c1cnn(C)c(=O)c1)N1C[C@@H](C)n2nc3c(c2C1=O)CN(C(=O)c1ccc(Cl)c(C(F)(F)F)c1)[C@H](C)C3 (single isomer, unassigned) [Compound 52B, (3R,7R)-2-(4-chloro-3-(trifluoromethyl)benzoyl)-3,7-dimethyl-9-((S*)-1-(1-methyl-6-oxo-1,6-dihydropyridazin-4-yl)ethyl)-1,2,3,4,8,9-hexahydropyrido [4′,3′:3,4]pyrazolo[1,5-a]pyrazin-10(7H)-one] | >3 | 0.016 | > 50 |  |  | 
CC(c1ccc(C(C)(C)O)nc1)N1C[C@@H](C)n2nc3c(c2C1=O)CN(C(=O)c1cc(Cl)c(Cl)cn1)[C@H](C)C3 (single isomer, unassigned) [Compound 57B, (3R,7R)-2-(4,5-dichloropicolinoyl)-9-((S*)-1-(6-(2-hydroxypropan-2-yl)pyridin-3-yl)ethyl)-3,7-dimethyl-1,2,3,4,8,9-hexahydropyrido[4′,3′:3,4]pyrazolo[1,5-a]pyrazin-10(7H)-one] | 1.68 | 0.65 | > 50 |  |  | 
CC(c1ccc(C2(O)CC2)cc1)N1C[C@@H](C)n2nc3c(c2C1=O)CN(C(=O)c1ccc(Cl)c(C#N)c1)[C@H](C)C3 (single isomer, unassigned) [Compound 14A, 2-Chloro-5-((3R,7R)-9-((R*)-1-(4-(1-hydroxycyclopropyl)phenyl)ethyl)-3,7-dimethyl-10-oxo-1,2,3,4,7,8,9,10-octahydropyrido[4′,3′:3,4]pyrazolo[1,5-a]pyrazine-2-carbonyl)benzonitrile] |  |  |  | 1.37 | 0.012 | > 50
CC(c1cnc(NC2CC2)nc1)N1C[C@@H](C)n2nc3c(c2C1=O)CN(C(=O)c1ccc(Cl)c(Cl)c1)[C@H](C)C3 (single isomer, unassigned) [Compound 37A, (3R,7R)-9-((R*)-1-(2-(cyclopropylamino)pyrimidin-5-yl)ethyl)-2-(3,4-dichlorobenzoyl)-3,7-dimethyl-1,2,3,4,8,9-hexahydropyrido[4′,3′:3,4]pyrazolo[1,5-a]pyrazin-10(7H)-one] | >3 | 0.15 |  |  |  | > 50
CC(c1ccn(C(C)C)c(=O)c1)N1C[C@@H](C)n2nc3c(c2C1=O)CN(C(=O)c1ccc(Cl)c(C(F)(F)F)c1)[C@H](C)C3 (single isomer, unassigned) [Compound 47A, (3R,7R)-2-(4-chloro-3-(trifluoromethyl)benzoyl)-9-((R*)-1-(1-isopropyl-2-oxo-1,2-dihydropyridin-4-yl)ethyl)-3,7-dimethyl-1,2,3,4,8,9-hexahydropyrido[4′,3′:3,4]pyrazolo[1,5-a]pyrazin-10(7H)-one] | 0.888 | 0.068 |  |  |  | > 50
Cc1nnnn1-c1ccc(C(C)N2C[C@@H](C)n3nc4c(c3C2=O)CN(C(=O)c2ccc(Cl)c(Cl)c2)[C@H](C)C4)cn1 (single isomer, unassigned) [Compound 27A, (3R,7R)-2-(3,4-dichlorobenzoyl)-3,7-dimethyl-9-((R*)-1-(6-(5-methyl-1H-tetrazol-1-yl)pyridin-3-yl)ethyl)-1,2,3,4,8,9-hexahydropyrido[4′,3′:3,4]pyrazolo[1,5-a]pyrazin-10(7H)-one] | >3 | 0.24 |  |  |  | > 50
CC(c1ccn(CC(F)(F)F)n1)N1C[C@@H](C)n2nc3c(c2C1=O)CN(C(=O)c1ccc(Cl)c(C#N)c1)[C@H](C)C3 (single isomer, unassigned) [Compound 42B, 2-chloro-5-((3R,7R)-3,7-dimethyl-10-oxo-9-((S*)-1-(1-(2,2,2-trifluoroethyl)-1H-pyrazol-3-yl)ethyl)-1,2,3,4,7,8,9,10-octahydropyrido[4′,3′:3,4]pyrazolo[1,5-a]pyrazine-2-carbonyl)benzonitrile] |  |  |  | > 3 | 0.06 | > 50
CC(c1cc(F)c(=O)n(C2CC2)c1)N1C[C@@H](C)n2nc3c(c2C1=O)CN(C(=O)c1ccc(Cl)c(Cl)c1)[C@H](C)C3 (single isomer, unassigned) [Compound 46A, (3R,7R)-9-((R*)-1-(1-cyclopropyl-5-fluoro-6-oxo-1,6-dihydropyridin-3-yl)ethyl)-2-(3,4-dichlorobenzoyl)-3,7-dimethyl-1,2,3,4,8,9-hexahydropyrido[4′,3′:3,4]pyrazolo[1,5-a]pyrazin-10(7H)-one] |  | 0.31 |  | > 3 |  | > 50
CC(c1cn(C2CC2)c(=O)cn1)N1C[C@@H](C)n2nc3c(c2C1=O)CN(C(=O)c1ccc(Cl)c(Cl)c1)[C@H](C)C3 (single isomer, unassigned) [Compound 56A, (3R,7R)-9-((R*)-1-(4-cyclopropyl-5-oxo-4,5-dihydropyrazin-2-yl)ethyl)-2-(3,4-dichlorobenzoyl)-3,7-dimethyl-1,2,3,4,8,9-hexahydropyrido[4′,3′:3,4]pyrazolo[1,5-a]pyrazin-10(7H)-one] |  | 0.29 |  | > 3 |  | > 50
CC(c1ccn(CC(F)(F)F)c(=O)c1)N1C[C@@H](C)n2nc3c(c2C1=O)CN(C(=O)c1ccc(Cl)c(Cl)c1)[C@H](C)C3 (single isomer, unassigned) [Compound 51A, (3R,7R)-2-(3,4-dichlorobenzoyl)-3,7-dimethyl-9-((R*)-1-(2-oxo-1-(2,2,2-trifluoroethyl)-1,2-dihydropyridin-4-yl)ethyl)-1,2,3,4,8,9-hexahydropyrido[4′,3′:3,4]pyrazolo[1,5-a]pyrazin-10(7H)-one] |  | 0.06 |  | > 3 |  | > 50
CNC(=O)c1ccc(C(C)N2C[C@@H](C)n3nc4c(c3C2=O)CN(C(=O)c2ccc(Cl)c(Cl)c2)[C@H](C)C4)cn1 (single isomer, unassigned) [Compound 24A, 5-((R*)-1-((3R,7R)-2-(3,4-dichlorobenzoyl)-3,7-dimethyl-10-oxo-1,3,4,7,8,10-hexahydropyrido[4′,3′:3,4]pyrazolo[1,5-a]pyrazin-9(2H)-yl)ethyl)-N-methylpicolinamide] |  |  |  | > 3 | 0.038 | > 50
CN=[S@@](C)(=O)c1ccc([C@H](C)N2C[C@@H](C)n3nc4c(c3C2=O)CN(C(=O)c2ccc(Cl)c(Cl)c2)[C@H](C)C4)cn1 (relative stereo) [Compound 29D, (3R,7R)-2-(3,4-dichlorobenzoyl)-9-((S*)-1-(6-((S*)—N,S-dimethylsulfonimidoyl)pyridin-3-yl)ethyl)-3,7-dimethyl-1,2,3,4,8,9-hexahydropyrido[4′,3′:3,4]pyrazolo[1,5-a]pyrazin-10(7H)-one] |  |  |  | 1.25 | 0.059 | > 50
CC(c1cnc(C(F)(F)F)cn1)N1C[C@@H](C)n2nc3c(c2C1=O)CN(C(=O)c1ccc(Cl)c(C#N)c1)[C@H](C)C3 (single isomer, unassigned) [Compound 10B, 2-Chloro-5-((3R,7R)-3,7-dimethyl-10-oxo-9-((S*)-1-(5-(trifluoromethyl)pyrazin-2-yl)ethyl)-1,2,3,4,7,8,9,10-octahydropyrido[4′,3′:3,4]pyrazolo[1,5-a]pyrazine-2-carbonyl)benzonitrile] |  |  |  | > 3 | 0.087 | > 50
CC(c1ccn(CC(C)(C)O)c(=O)c1)N1C[C@@H](C)n2nc3c(c2C1=O)CN(C(=O)c1ccc(Cl)c(C(F)(F)F)c1)[C@H](C)C3 (single isomer, unassigned) [Compound 64A, (3R,7R)-2-(4-chloro-3-(trifluoromethyl)benzoyl)-9-((R*)-1-(1-(2-hydroxy-2-methylpropyl)-2-oxo-1,2-dihydropyridin-4-yl)ethyl)-3,7-dimethyl-1,2,3,4,8,9-hexahydropyrido[4′,3′:3,4]pyrazolo[1,5-a]pyrazin-10(7H)-one] |  | 0.039 |  | 1.82 |  | > 50
Cc1nnc(C(C)N2C[C@@H](C)n3nc4c(c3C2=O)CN(C(=O)c2ccc(Cl)c(Cl)c2)[C@H](C)C4)o1 (single isomer, unassigned) [Compound 43A, (3R,7R)-2-(3,4-dichlorobenzoyl)-3,7-dimethyl-9-((R*)-1-(5-methyl-1,3,4-oxadiazol-2-yl)ethyl)-1,2,3,4,8,9-hexahydropyrido[4′,3′:3,4]pyrazolo[1,5-a]pyrazin-10(7H)-one] |  | 0.31 |  | > 3 |  | > 50
